Data reported in patent US20100210518A1, “Peg-lipid conjugates for increasing the solubility of drug compounds” (priority 2009, published 2010).

Details: mouse, in vivo, 25 mg/kg, pH 6
Protocol: Experiments were performed to determine blood levels of Gefitinib formulations after both intravenous and oral dosing. […] Groups of three male mice (B6D2F1) were used for the studies. HPLC-MS analyses were performed on heparinized mouse plasma samples obtained typically at 0 hr, 0.08 hr, 0.5 hr, 1 hr, 2 hr, 4 hr, 7 hr, 16 hr and 24 hr after bolus IV injection. After oral feeding, the analyses were performed at 0 hr, 0.5 hr, 1 hr, 2 hr, 4 hr, 8 hr, 16 hr and 24 hr. To determine the level of each drug, the drug was first isolated from plasma with a sample pre-treatment. Acetonitrile were used to remove proteins in samples. An isocratic HPLC-MS/MS method was then used to separate the drugs from any potential interference. Drug levels were measured by MS detection with a multiple reaction monitoring (MRM) mode. PK data was analyzed using the WinNonlin program (ver. 5.2, Pharsight) compartmental models of analysis.
The drug was administered orally and the dosing strength was 25 mg/kg. The drug was also administered intravenously and the dosing strength was 25 mg/kg in 15% Cremophor EL® and in 10 mM sodium phosphate buffer (pH 6.0). The AUC (31.3) obtained from the IV administration was used for calculating the relative bioavailability (BA).

## 3,4-Di(oleoyloxy)-decaethylene glycol-benzoate [DDGB]
  relative bioavailability (BA): 56.0%
